# Data reported in PubChem BioAssay (NCI).
#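 Tested at 5 concentrations; 48 h exposure; 96-well plates; endpoints linearly interpolated, else capped at highest concentration. TGI: concentration producing complete growth inhibition.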
# Columns and labels:
# Assay in all cases: NCI anticancer screen, dose series, 48 h
# SF-295 CNS = tested on: SF-295 CNS
# NCI-H460 lung = tested on: NCI-H460 lung
# RPMI-8226 leukemia = tested on: RPMI-8226 leukemia
# OVCAR-8 ovarian = tested on: OVCAR-8 ovarian
# OVCAR-3 ovarian = tested on: OVCAR-3 ovarian
# SR leukemia = tested on: SR leukemia
# NCI-H522 lung = tested on: NCI-H522 lung
# CCRF-CEM leukemia = tested on: CCRF-CEM leukemia
# MDA-MB-435 = tested on: MDA-MB-435
# 786-0 renal = tested on: 786-0 renal
# CAKI-1 renal = tested on: CAKI-1 renal
# EKVX NSCLC = tested on: EKVX NSCLC
# K-562 leukemia = tested on: K-562 leukemia
# TK-10 renal = tested on: TK-10 renal
# PC-3 prostate = tested on: PC-3 prostate
# SN12C renal = tested on: SN12C renal
# LOX IMVI melanoma = tested on: LOX IMVI melanoma
# SF-268 CNS = tested on: SF-268 CNS
# IGROV1 ovarian = tested on: IGROV1 ovarian
# NCI-H226 lung = tested on: NCI-H226 lung
# SW-620 colon = tested on: SW-620 colon
# NCI/ADR-RES ovarian = tested on: NCI/ADR-RES ovarian
# SK-MEL-28 melanoma = tested on: SK-MEL-28 melanoma
# MCF7 breast = tested on: MCF7 breast
# HOP-92 NSCLC = tested on: HOP-92 NSCLC
# OVCAR-5 ovarian = tested on: OVCAR-5 ovarian
# HS 578T breast = tested on: HS 578T breast
# COLO 205 colon = tested on: COLO 205 colon
# HOP-62 NSCLC = tested on: HOP-62 NSCLC
# SK-MEL-2 melanoma = tested on: SK-MEL-2 melanoma
# SNB-75 CNS = tested on: SNB-75 CNS
# T-47D breast = tested on: T-47D breast
# HL-60(TB) leukemia = tested on: HL-60(TB) leukemia
# MDA-N = tested on: MDA-N
# HT29 colon = tested on: HT29 colon
# HCT-116 colon = tested on: HCT-116 colon
# DU-145 prostate = tested on: DU-145 prostate
# MOLT-4 leukemia = tested on: MOLT-4 leukemia
# MALME-3M melanoma = tested on: MALME-3M melanoma
# NCI-H23 lung = tested on: NCI-H23 lung
# OVCAR-4 ovarian = tested on: OVCAR-4 ovarian
# U251 CNS = tested on: U251 CNS
# SK-OV-3 ovarian = tested on: SK-OV-3 ovarian
# MDA-MB-231 breast = tested on: MDA-MB-231 breast
# A549 NSCLC = tested on: A549 NSCLC
# ACHN renal = tested on: ACHN renal
# RXF 393 renal = tested on: RXF 393 renal
# BT-549 breast = tested on: BT-549 breast
# UACC-257 melanoma = tested on: UACC-257 melanoma
# SK-MEL-5 melanoma = tested on: SK-MEL-5 melanoma
# HCT-15 colon = tested on: HCT-15 colon
# M14 melanoma = tested on: M14 melanoma
# KM12 colon = tested on: KM12 colon
# HCC-2998 colon = tested on: HCC-2998 colon
# UACC-62 melanoma = tested on: UACC-62 melanoma
# SF-539 CNS = tested on: SF-539 CNS
structure (smiles),measurement,setting,value
Cc1nn(C(=O)c2ccccc2O)c2c1C(c1ccccc1O)SC(N)=N2 (stereo unspecified),TGI,SF-295 CNS,> 10 µM
same,TGI,NCI-H460 lung,> 10 µM
same,TGI,RPMI-8226 leukemia,8.19 µM
same,TGI,OVCAR-8 ovarian,> 10 µM
same,TGI,OVCAR-3 ovarian,> 10 µM
same,TGI,SR leukemia,5.4 µM
same,TGI,NCI-H522 lung,> 10 µM
same,TGI,CCRF-CEM leukemia,9.01 µM
same,TGI,MDA-MB-435,> 10 µM
same,TGI,786-0 renal,> 10 µM
same,TGI,CAKI-1 renal,> 10 µM
same,TGI,EKVX NSCLC,> 10 µM
same,TGI,K-562 leukemia,> 10 µM
same,TGI,TK-10 renal,> 10 µM
same,TGI,PC-3 prostate,> 10 µM
same,TGI,SN12C renal,> 10 µM
same,TGI,LOX IMVI melanoma,> 10 µM
same,TGI,SF-268 CNS,> 10 µM
same,TGI,IGROV1 ovarian,> 10 µM
same,TGI,NCI-H226 lung,8.96 µM
same,TGI,SW-620 colon,> 10 µM
same,TGI,NCI/ADR-RES ovarian,> 10 µM
same,TGI,SK-MEL-28 melanoma,> 10 µM
same,TGI,MCF7 breast,> 10 µM
same,TGI,HOP-92 NSCLC,> 10 µM
same,TGI,OVCAR-5 ovarian,> 10 µM
same,TGI,HS 578T breast,> 10 µM
same,TGI,COLO 205 colon,> 10 µM
same,TGI,HOP-62 NSCLC,> 10 µM
same,TGI,SK-MEL-2 melanoma,> 10 µM
same,TGI,SNB-75 CNS,> 10 µM
same,TGI,T-47D breast,> 10 µM
same,TGI,HL-60(TB) leukemia,5.02 µM
same,TGI,MDA-N,> 10 µM
same,TGI,HT29 colon,> 10 µM
same,TGI,HCT-116 colon,> 10 µM
same,TGI,DU-145 prostate,> 10 µM
same,TGI,MOLT-4 leukemia,> 10 µM
same,TGI,MALME-3M melanoma,> 10 µM
same,TGI,NCI-H23 lung,> 10 µM
same,TGI,OVCAR-4 ovarian,> 10 µM
same,TGI,U251 CNS,> 10 µM
same,TGI,SK-OV-3 ovarian,> 10 µM
same,TGI,MDA-MB-231 breast,> 10 µM
same,TGI,A549 NSCLC,> 10 µM
same,TGI,ACHN renal,> 10 µM
same,TGI,RXF 393 renal,> 10 µM
same,TGI,BT-549 breast,> 10 µM
same,TGI,UACC-257 melanoma,> 10 µM
same,TGI,SK-MEL-5 melanoma,> 10 µM
same,TGI,HCT-15 colon,> 10 µM
same,TGI,M14 melanoma,> 10 µM
same,TGI,KM12 colon,> 10 µM
same,TGI,HCC-2998 colon,> 10 µM
same,TGI,UACC-62 melanoma,> 10 µM
same,TGI,SF-539 CNS,3.53 µM
